The values that follow come from patent publication US20250064789A1, “KETOAMIDE DERIVATIVES AND PHARMACEUTICAL USES THEREOF” (priority 2022, published 2025).

Series [1] has as its target recombinant SARS-CoV-2 M^pro (Severe acute respiratory syndrome coronavirus 2 (2019-nCoV) (SARS-CoV-2), UniProt P0DTD1). Kind of series: Inhibition of SARS-CoV-2 M^pro enzyme activity (fluorescent substrate assay). It is filed as biochemical. As to conditions: inhibition of SARS-CoV-2 M^pro enzyme activity; values in nM; read-out: IC50.
Series [2] in a line: Cytotoxic assay against Vero E6 cells (MTT, 72 h). It is filed as cell-based. As to conditions: African green monkey. On the procedure: The cytotoxicity assessment of compounds was performed against Vero E6 cells. The specific experimental procedures: Vero E6 cells were seeded into a 96-well plate at a cell density of 2×10^4 cells/well, with 100 μL/well, and then incubated overnight at 37° C. in a 5% CO2 incubator. The next day, 100 μL of drug-containing medium was added to each well. The compound was diluted in a 2-fold serial dilution with a top concentration of […], for a total of 6 gradients. Three repeated wells were set for each concentration, and negative controls and blank controls without drugs were included for each experiment. […] All experimental data were analyzed using GraphPad Prism software.

For series [3] the following is noted: male, Sprague-Dawley, rat, in vivo, iv, 1 mg/kg.
The next series can be described thus: in vivo. As to conditions: male, Sprague-Dawley, rat.
The nature of series [4]: Cytotoxic assay against human BEAS-2B cells (MTT, 72 h). It is filed as cell-based. As to conditions: human. As to the method: (§1) BEAS-2B cells (normal human bronchial epithelial cells) and HUVEC cells (human umbilical vein endothelial cells) were used to evaluate the cytotoxicity of compounds against human-derived cells. The detailed experimental procedures: BEAS-2B cells or HUVEC cells were seeded into a 96-well plate at a cell density of 2×10^4 cells/well, that is, 100 µL/well, and then incubated overnight at 37° C. in a 5% CO2 incubator. The next day, 100 μL of drug-containing medium was added to each well. The compound was diluted in a 2-fold serial dilution with a top concentration of […], for a total of 6 gradients. Three repeated wells were set for each concentration, and negative controls and blank controls without drugs were included for each experiment. […] All experimental data were analyzed using GraphPad Prism software.

The nature of series [5]: Cytotoxic assay against HUVEC cells (MTT, 72 h). It is filed as cell-based, human. As to conditions: human. As to the method:
as §1

Series [6] can be described thus: Metabolic stability using human liver microsomes. As to conditions: pH 7.4, NADPH, 37° C., read-out: Human liver microsomes T1/2. It counts as in vitro ADME.

In the case of `C[C@@H](NC(=O)[C@@H]1C[C@@H]2[C@H](C1)C2(F)F)C(=O)N[C@H](Cc1ccccc1)C(=O)C(=O)NCc1ccccn1` [Compound 126], the IC50 in series [1] came to 11.1 ± 0.6 nM. Further, the CC50 at 72 h in series [2] is > 500 µM. Moreover, the Vssobs in series [3] was determined as 16.6 ± 5.41 L/kg. In the series “in vivo” (iv, 1 mg/kg), this compound displayed an AUC(0-inf) of 1.07 ± 0.295 µg·h/mL, an AUC(0-t) of 1.05 ± 0.285 µg·h/mL, a Cmax of 1.86 ± 0.138 µg/mL and a mean residence time (MRT inf) of 1.06 ± 0.56 h. In addition, in “in vivo” (iv, 1 mg/kg), the Tmax was found to be 0.08 h, the clearance amounted to 0.278 ± 0.217 L/h/kg and the half-life was 3.65 ± 3.48 h. In the series “in vivo” (po, 10 mg/kg), this compound returned a total exposure AUC(0-inf) of 5.27 ± 0.327 µg·h/mL, an area under the curve AUC(0-t) of 5.27 ± 0.325 µg·h/mL, a Cmax of 1.559 ± 0.0116 µg/mL and a mean residence time (MRT inf) of 4.02 ± 0.17 h. Moreover, in the series “in vivo” (po, 10 mg/kg), the time of peak concentration (Tmax) is 0.5 h, the bioavailability amounted to 49.9 ± 3.08% and the half-life was 2.46 ± 0.15 h.

On to `C[C@@H](NC(=O)C1CCC(F)(F)CC1)C(=O)N[C@H](Cc1ccccc1)C(=O)C(=O)NCc1ccccn1` [Compound 145], for which the IC50 in series [1] came to 17.1 ± 2.5 nM. In addition, the Vssobs in series [3] came out at 14.5 ± 2.62 L/kg. In “in vivo” (iv, 1 mg/kg), the AUC(0-inf) worked out at 1.18 ± 0.208 µg·h/mL, the area under the curve AUC(0-t) is 1.16 ± 0.205 µg·h/mL, the Cmax was 1.64 ± 0.0866 µg/mL and the mean residence time (MRT inf) came to 1.09 ± 0.13 h. In the series “in vivo” (iv, 1 mg/kg), the Tmax stood at 0.08 h, the clearance was determined as 0.104 ± 0.0222 L/h/kg and the half-life is 1.37 ± 0.05 h. Also, in “in vivo” (po, 10 mg/kg), the area under the curve AUC(0-inf) stood at 3.85 ± 0.875 µg·h/mL, the AUC(0-t) was 3.83 ± 0.872 µg·h/mL, the concentration peaked (Cmax) at 1.17 ± 0.223 µg/mL and the MRT inf is 3.75 ± 0.56 h. Further, in “in vivo” (po, 10 mg/kg), the Tmax came out at 0.33 ± 0.14 h, the bioavailability was determined as 32.9 ± 7.51% and the half-life was 3.19 ± 0.06 h.

Turning to `O=C(CC1CCC(F)(F)CC1)NCC(=O)N[C@H](Cc1ccccc1)C(=O)C(=O)NCc1ccccn1` [Compound 150], the half-maximal inhibitory concentration (IC50) in series [1] was found to be 12.2 ± 0.1 nM. The CC50 at 72 h in series [2] is > 500 µM. For the same compound, in series [3], the Vssobs was 2.91 ± 1.48 L/kg. Besides, in the series “in vivo” (iv, 1 mg/kg), the AUC(0-inf) was 6.63 ± 2.65 µg·h/mL, the AUC(0-t) was 6.42 ± 2.82 µg·h/mL, the peak level (Cmax) was 2.01 ± 0.322 µg/mL and the MRT inf is 3.94 ± 1.26 h. Moreover, in “in vivo” (iv, 1 mg/kg), the time to peak (Tmax) came to 0.08 h, the clearance amounted to 0.0498 ± 0.0126 L/h/kg and the half-life was 3.59 ± 0.8 h. Besides, in “in vivo” (po, 10 mg/kg), the AUC(0-inf) was determined as 12.9 ± 3.23 µg·h/mL, the exposure AUC(0-t) was 12.6 ± 3.08 µg·h/mL, the Cmax amounted to 1.3 ± 0.307 µg/mL and the mean residence time (MRT inf) turned out to be 5.95 ± 0.09 h. For the same compound, in the series “in vivo” (po, 10 mg/kg), the Tmax was determined as 0.42 ± 0.14 h, the bioavailability came out at 19.7 ± 4.8% and the half-life is 4.26 ± 0.63 h.

In the case of `O=C(CNC(=O)C1CCC(F)(F)CC1)N[C@H](Cc1ccccc1)C(=O)C(=O)NCc1ccccn1` [Compound 155], the IC50 in series [1] turned out to be 14.1 ± 0.1 nM. This compound yielded a cytotoxic concentration (CC50) at 72 h in series [2] of 281 µM. Moreover, the Vssobs in series [3] came to 3.29 ± 0.42 L/kg. In “in vivo” (iv, 1 mg/kg), this compound registered an AUC(0-inf) of 5.12 ± 0.628 µg·h/mL, an exposure AUC(0-t) of 5.1 ± 0.615 µg·h/mL, a Cmax of 1.57 ± 0.00788 µg/mL and a mean residence time (MRT inf) of 3.99 ± 0.42 h. Moreover, in “in vivo” (iv, 1 mg/kg), the Tmax is 0.08 h, the clearance was 0.0528 ± 0.006 L/h/kg and the half-life was 3.12 ± 0.35 h. In “in vivo” (po, 10 mg/kg), this compound displayed an area under the curve AUC(0-inf) of 12.4 ± 2.23 µg·h/mL, an AUC(0-t) of 12.3 ± 2.27 µg·h/mL, a Cmax of 1.15 ± 0.289 µg/mL and an MRT inf of 5.98 ± 0.36 h. Also, in “in vivo” (po, 10 mg/kg), the Tmax came out at 0.33 ± 0.14 h and the half-life was 3.75 ± 0.62 h.

As to `C[C@@H](NC(=O)N1CCC(F)(F)CC1)C(=O)N[C@H](Cc1ccccc1)C(=O)C(=O)NCc1ccccn1` [Compound 296, N—((R)-1-(((R)-3,4-dioxo-1-phenyl-4-((pyridin-2-ylmethyl)amino)butan-2-yl)amino)-1-oxopropan-2-yl)-4,4-difluoropiperidin-1-formamide], in series [1], the IC50 turned out to be 14.8 ± 0.1 nM. In series [3], the Vssobs came to 16.3 ± 2.68 L/kg. Further, in the series “in vivo” (iv, 1 mg/kg), the total exposure AUC(0-inf) came to 1.04 ± 0.162 µg·h/mL, the AUC(0-t) stood at 1.02 ± 0.156 µg·h/mL, the Cmax was 1.4 ± 0.0229 µg/mL and the mean residence time MRT inf stood at 1.17 ± 0.44 h. Moreover, in the series “in vivo” (iv, 1 mg/kg), the Tmax was 0.08 h, the clearance was 0.279 ± 0.232 L/h/kg and the half-life was 3.55 ± 3.39 h. In the series “in vivo” (po, 10 mg/kg), the AUC(0-inf) was 5.19 ± 1.01 µg·h/mL, the area under the curve AUC(0-t) amounted to 5.18 ± 1.01 µg·h/mL, the maximum concentration (Cmax) was found to be 1.04 ± 0.209 µg/mL and the MRT inf is 4.43 ± 0.87 h. In “in vivo” (po, 10 mg/kg), the Tmax turned out to be 0.25 h, the bioavailability stood at 50.6 ± 9.84% and the half-life was 2.8 ± 0.09 h.

As to `C[C@@H](NC(=O)C1CCC(F)(F)CC1)C(=O)N[C@H](Cc1ccco1)C(=O)C(=O)NCc1ccccn1` [Compound 362], the IC50 in series [1] stood at 34 ± 0.6 nM. Moreover, the CC50 at 72 h in series [2], in series [4] and in series [5] was > 500 µM throughout. In series [6], the half-life at 1 µM came out at 0.561 h.

Turning to `C[C@@H](NC(=O)C1CCCC(F)(F)C1)C(=O)N[C@H](Cc1ccccc1)C(=O)C(=O)NCc1nccs1` (stereo partly shown) [Compound 375], in series [1], the IC50 is 13.8 ± 1.2 nM. The CC50 at 72 h in series [2] is > 500 µM; in series [4], 325 µM; in series [5], 384 µM.
